Values after ≈ are worked out from the molar mass of the structure shown. Like-named read-outs stand apart in the source and are kept apart here.
Legend:
six strains of Candida = test: in vitro antifungal activity (MIC) in Eagles medium; assay type: cell-based; conditions: for MIC: six strains of Candida
a large number of fungi = test: conventional antifungal screening test, in vitro, Sabourand broth medium; assay type: cell-based
Candida albicans = test: mouse Candida albicans oral infection model; assay type: in vivo; conditions: compared to ketoconazole

SMILES	in vitro activity against six strains of Candida compared to ketoconazole (six strains of Candida)	MIC (six strains of Candida; after 48 hours, read-out: mean Minimum Inhibitory Concentration (MIC)) [µg/mL]	in vitro activity against a large number of fungi (a large number of fungi)	preventive dosage required for survival of 100% of the test animals (Candida albicans)	MIC (six strains of Candida; read-out: MIC) [µg/mL]
Fc1ccc(C(F)(Cn2cncn2)Cn2cncn2)c(F)c1 [compound of this invention, 1,3-Bis(1H-1,2,4-triazol-1-yl)-2-(2,4-difluorophenyl)-2-fluoro-propane]	significantly lower in vitro activity	4 (≈ 13 µM)	negligible in vitro activity	lower than that required for ketoconazole	–
CC(=O)N1CCN(c2ccc(OCC3COC(Cn4ccnc4)(c4ccc(Cl)cc4Cl)O3)cc2)CC1 (stereo not drawn) [ketoconazole, reference compound]	–	–	negligible in vitro activity	–	< 0.031

— EP0178682A2, “1,3-Bis(1H-1,2,4-triazol-1-yl)-2-fluoro-2-(2,4-difluorophenyl)propane, antifungal composition containing it, and process for preparation of the compound and the composition” (SCHERING CORPORATION, priority 1984, dated 1986)
